# Experimental data reported in publication PMC6201103, “The Small-Compound Inhibitor K22 Displays Broad Antiviral Activity against Different Members of the Family Flaviviridae and Offers Potential as a Panviral Inhibitor” (Antimicrobial Agents and Chemotherapy, 2018).
# Where “and” joins values, the source holds several entries; their conditions need not be identical. Equal entries are not always repeated. Where two headings read alike, the source gives them in different places.
# Assays:
# ZIKV [1] = assay: Direct effect on virus stability: ZIKV preincubated with K22, then titrated; assay type: cell-based, Zika virus; conditions: 2 h at room temperature, increasing K22 concentrations
# Method: Shortly, the compound was diluted in DMSO to reach the desired concentrations (0, 5, 10, 20, 30, and 40 μM) and incubated with the cells for 2 h prior to infection, during infection, or after a period of 2, 6, 10, 14, 18, 22, or 24 h. […] Next, the inoculum was discarded, the cells were washed with prewarmed PBS, and culture medium was added to the wells. Additionally, in order to analyze the direct effect of K22 on virus stability, ZIKV in DMEM was incubated for 2 h at room temperature with the different K22 concentrations and titrated in 10-fold serial dilution on Vero cells for measurement of virus infectivity as described above.
# ZIKV [2] = assay: Immunofluorescence analysis of E protein and dsRNA in ZIKV-infected Vero cells; conditions: 30 μM K22, 48 h p.i.
# BVDV SuwaNcp [3] = assay: BVDV SuwaNcp replication, qRT-PCR of viral RNA in BT cells; assay type: cell-based, bovine viral diarrhea virus
# ZIKV [4] = assay: ZIKV infectivity (TCID50 titration of supernatant) and replication (E protein flow cytometry) in K22-treated Vero cells; assay type: cell-based, Zika virus; conditions: for IC50: Zika virus, Vero cells, MOI 0.1 TCID50/cell
# Method: (§1) To test the effect of K22 on flavivirus, hepacivirus, and pestivirus infection, 8 × 10^4 Vero cells were seeded in 12-well dishes (flaviviruses), 5 × 10^4 Huh7-Lunet-N-hCD81-FLuc cells were seeded in 12-well dishes (hepacivirus), or 1 × 10^4 BT cells were seeded in 96-well dishes (pestivirus). At 1 day postseeding, cells were treated with different concentrations of K22 (diluted in DMSO at the concentrations indicated below) for 3 to 4 h and preincubated in 5% CO2 at 37°C. Cells were infected with different viruses at a multiplicity of infection (MOI) of 0.1 TCID50/cell for 1 h at 37°C. For HCV infection, cells were infected with JcR-2a or HCV Jc1 for 3 h at 37°C. Afterwards, cells were washed with prewarmed phosphate-buffered saline (PBS) solution, before cell culture medium supplemented with K22 or the DMSO control at each concentration was added, and incubated at 37°C in a 5% CO2 atmosphere. At 24 h and/or 48 h postinfection (p.i.), supernatants and cells were collected for further analysis.
# (§2) Flavivirus replication and the cytopathic effect (CPE) were evaluated from collected cells. Cells in suspension were first labeled with the Fixable Aqua dead cell stain kit (Thermo Fisher Scientific, Waltham, MA, USA) for 30 min on ice, followed by washing with cold PBS. […] After washing, anti-mouse IgG2a conjugated with Alexa Fluor 647 (Thermo Fisher Scientific) was added for 15 min, and the cells were acquired on a FACSCanto II flow cytometer (BD Biosciences, Allschwil, Switzerland). FlowJo (v.9.1) software (TreeStar, Inc., Ashland, OR, USA) was used for analysis. Cell debris and doublets were excluded by electronic gating in forward/side scatter plots. Cell culture supernatants were collected at 24 and 48 h p.i., and the flavivirus titers in Vero cells were determined using the immunoperoxidase monolayer assay (IPMA). For that, supernatants 10-fold diluted in cell culture medium supplemented with 2% (vol/vol) FBS were incubated on Vero cells for 72 h at 37°C in a 5% CO2 atmosphere. At that point, cells were fixed in 4% (wt/vol) PFA for 10 min at room temperature, washed, and immunolabeled with anti-flavivirus group antigen antibody 4G2 diluted in 0.3% (wt/vol) saponin in PBS for 30 min at 37°C and then washed and incubated for another 30 min at 37°C with goat anti-mouse IgG conjugated with horseradish peroxidase (Dako), followed by incubation for 10 to 30 min at room temperature with 3-amino-9-ethylcarbazole (AEC) substrate (Sigma-Aldrich).
# ZIKV [5] = assay: Time-of-addition assay, ZIKV in Vero B4 cells; assay type: cell-based, Zika virus; conditions: K22 added pre- or postinfection, supernatant at 24 h p.i.
# HCV [6] = assay: HCV infectivity, supernatant transferred onto naive Huh7-Lunet-N-hCD81-FLuc cells, Renilla luciferase; assay type: cell-based, hepatitis C virus
# Vero cells = assay: Cytotoxicity on Vero cells (Fixable Aqua dead cell stain flow cytometry; CytoTox 96 assay); assay type: cell-based; conditions: concentrations of Fig. 1c, confirmed with commercial kit
# Method: (§3) To evaluate the effect of K22 on cell viability, proliferation, as well as cytotoxicity, uninfected cells were treated with the compound at the concentrations specified above or with DMSO as a control. To determine the effect of K22 on cell viability, Vero cells were collected and labeled with the Fixable Aqua dead cell stain kit (Thermo Fisher Scientific) for 30 min on ice, before the cells were washed with cold PBS and fixed for flow cytometry analysis. As a positive control for cell death, cells were heated at 65°C for 30 min. The mean fluorescence intensity (MFI) was determined by flow cytometry analysis on a FACSCanto II flow cytometer (BD Bioscience) and evaluated using FlowJo (v.9.1) software. […] The compound was added at the concentrations indicated above, and cytotoxicity was determined at 24 and/or 48 h p.i. by determination of the absorbance at 490 nm using a plate reader (VersaMax [Molecular Devices, Wokingham, UK] or an EnSpire 2300 multilabel reader [PerkinElmer, Schwerzenbach, Switzerland]). Cell proliferation following compound treatment was determined using a MultiTox-Fluor multiplex cytotoxicity assay (catalog number G9200; Promega) according to the manufacturer's recommendations. The readout was performed using a multilabel reader (EnSpire 2300 multilabel reader; PerkinElmer) upon excitation at ∼400 nm and emission at ∼505 nm. […]
# BVDV SuwaCp [7] = assay: microbe, parasite or virus in culture; assay type: cell-based, bovine viral diarrhea virus
# [8] = Proliferation, MultiTox-Fluor multiplex cytotoxicity assay on BT cells; assay type: cell-based, bovine; conditions: bovine, MultiTox-Fluor assay
# Method: as §3
# BT cells [9] = assay: as above; assay type: cell-based, bovine
# Method: as §3
# ZIKV [10] = assay: Combination treatment, ZIKV titers (TCID50) in Vero B4 cells; conditions: for combination index (CI): CompuSyn
# HCV [11] = assay: HCV replication, JcR-2a Renilla luciferase reporter virus in Huh7-Lunet-N-hCD81-FLuc cells; assay type: cell-based, hepatitis C virus
# JEV = JEV infectivity (TCID50 titration) and replication in K22-treated Vero cells; assay type: cell-based, Japanese encephalitis virus; conditions: for IC50: Japanese encephalitis virus, MOI 0.1 TCID50/cell
# Method: as §1, §2
# WESSV = assay: microbe, parasite or virus in culture; assay type: cell-based, Wesselsbron virus; conditions: for IC50: Wesselsbron virus, Vero, read-out: IC50, WESSV infectivity
# YFV = assay: microbe, parasite or virus in culture; assay type: cell-based, yellow fever virus; conditions: for IC50: Yellow fever virus, Vero, read-out: IC50, YFV infectivity
# [12] = Cytotoxicity, CytoTox 96 nonradioactive cytotoxicity assay on BT cells; assay type: cell-based, bovine; conditions: bovine, CytoTox 96 assay
# Method: as §3
# BT cells [13] = assay: as above; assay type: cell-based, bovine; conditions: concentrations used for BVDV
# Method: as §3
# [14] = test system: Huh7-Lunet-N-hCD81-FLuc cells; assay: MTT cell proliferation assay; assay type: cell-based
# [15] = MTT cell proliferation assay; assay type: cell-based; conditions: human, Huh7-Lunet-N-hCD81-FLuc cells, 48 h posttreatment
# Vero B4 cells = assay: Proliferation/viability, MultiTox-Fluor multiplex cytotoxicity assay on Vero B4 cells; assay type: cell-based
# Method: as §3
# BVDV SuwaCp [16] = assay: BVDV SuwaCp replication, qRT-PCR of viral RNA in BT cells; assay type: cell-based, bovine viral diarrhea virus
# USUV = assay: microbe, parasite or virus in culture; assay type: cell-based, Usutu virus; conditions: for IC50: Usutu virus, Vero, read-out: IC50, USUV infectivity
# WNV = WNV infectivity (TCID50 titration) and replication in K22-treated Vero cells; assay type: cell-based, West Nile virus; conditions: for IC50: West Nile virus, MOI 0.1 TCID50/cell
# Method: as §1, §2
# BVDV SuwaNcp [17] = assay: microbe, parasite or virus in culture; assay type: cell-based, bovine viral diarrhea virus
# [18] = Bovine viral diarrhea virus isolates and strains, 48 h
compound,measurement,setting,value
"O=C(N/C(=C\c1ccccc1)C(=O)N1CCC(O)(c2ccc(Br)cc2)CC1)c1ccccc1 [K22, (Z)-N-{3-[4-(4-bromophenyl)-4-hydroxypiperidin-1-yl]-3-oxo-1-phenylprop-1-en-2-yl} benzamide]",effect of preincubation of ZIKV with K22 on infectivity,ZIKV [1],does not affect ZIKV infectivity
same,viral E protein and dsRNA markers of infection,ZIKV [2],severely reduced
same,IC50,BVDV SuwaNcp [3]; [18],34.7 µM
same,K22 concentrations necessary to significantly reduce viral replication of BVDV SuwaNcp,"BVDV SuwaNcp [3]; qRT-PCR, BT cells",≥ 40 µM
same,"SI (selectivity index), ZIKV",ZIKV [4]; 24 h p.i.,35.6
same,"SI (selectivity index), ZIKV",ZIKV [4]; 48 h p.i.,39.9
same,IC50,ZIKV [4]; 24 h p.i.,2.5 µM
same,IC50,ZIKV [4]; 48 h p.i.,2.1 µM
same,reduction of ZIKV viral titers,"ZIKV [4]; higher concentrations of K22, Vero cells",up to 4 orders of magnitude
same,antiviral activity by time of addition,ZIKV [5],displayed antiviral activity when added at several hours postinfection
same,"SI (selectivity index), HCV",HCV [6],9.7
same,IC50,"HCV [6]; Hepatitis C virus, 72 h, read-out: IC50 for infectivity, HCV",2.2 µM
same,cytotoxic effect of K22,Vero cells,no cytotoxic effect
same,"SI (selectivity index), BVDV SuwaCp",BVDV SuwaCp [7],>24.6
same,IC50,"BVDV SuwaCp [7]; Bovine viral diarrhea virus isolates and strains, read-out: IC50 for infectivity, BVDV SuwaCp",14.2 µM
same,CC50,[8],> 350 µM
same,K22 concentrations affecting cell proliferation,BT cells [9],≥ 30 µM
same,reduction of ZIKV viral titers,"ZIKV [10]; 5 to 10 μM K22 combined with ≥10 IU IFN-α, 24 h p.i., no further impact on cell proliferation",at least 3 orders of magnitude
same,combination index (CI),"ZIKV [10]; K22 10 to 30 μM with 10 IU IFN-α, slight synergism",< 1
same,combination index (CI),"ZIKV [10]; K22 and RBV, concentrations causing only partial inhibition, additive effect",about 1
same,effect of combination on antiviral effect of K22,ZIKV [10]; K22 with either 0.1 or 1 μg/ml RBV,did not improve the antiviral effect of K22
same,"CC50 relative to IC50 (replication), HCV",HCV [11]; CC50 21.3 μM vs IC50 7.0 μM,3 fold
same,IC50,"HCV [11]; Hepatitis C virus, 48 h, read-out: IC50 for replication, HCV",7 µM
same,K22 concentrations significantly reducing HCV replication as well as infectivity,HCV [11]; {},≥ 20 µM
same,"SI (selectivity index), JEV",JEV; 24 h p.i.,193.9
same,"SI (selectivity index), JEV",JEV; 48 h p.i.,19.1
same,IC50,"JEV; 24 h p.i., Vero cells",0.5 µM
same,IC50,"JEV; 48 h p.i., Vero cells",4.4 µM
same,K22 concentrations reducing JEV replication and infectivity,"JEV; dose-dependent, Vero cells",≥ 5 µM
same,"SI (selectivity index), WESSV",WESSV,15.2 and 12.5
same,K22 concentrations necessary to significantly inhibit WESSV,WESSV; Vero cells,≥ 20 µM
same,IC50,WESSV; 24 h,5.9 µM
same,IC50,WESSV; 48 h,6.8 µM
same,K22 concentrations reducing YFV replication and infectivity,YFV,≥ 5 µM
same,"SI (selectivity index), YFV",YFV,24.3 and 36.7
same,IC50,YFV; 24 h,3.7 µM
same,IC50,YFV; 48 h,2.3 µM
same,CC50,[12],> 1000 µM
same,cellular toxicity of K22,BT cells [13],no cellular toxicity
same,K22 concentrations affecting the cells used for infection,[14],≥ 20 µM
same,CC50 at 48 h,[15],21.3 µM
same,K22 concentrations that mildly affected cell proliferation,Vero B4 cells,≥ 30 µM
same,IC50,BVDV SuwaCp [16]; [18],15.5 µM
same,K22 concentrations necessary to significantly reduce viral replication of BVDV SuwaCp,"BVDV SuwaCp [16]; qRT-PCR, BT cells",≥ 20 µM
same,IC50,USUV; 24 h,9 µM
same,IC50,USUV; 48 h,~10 µM
same,K22 concentrations necessary to significantly inhibit USUV,USUV; Vero cells,≥ 20 µM
same,"SI (selectivity index), WNV",WNV; 24 h p.i.,32.3
same,"SI (selectivity index), WNV",WNV; 48 h p.i.,10.0
same,K22 concentrations significantly reducing WNV replication and infectivity,WNV; Vero cells,≥ 10 µM
same,IC50,"WNV; 24 h p.i., Vero cells",2.8 µM
same,IC50,"WNV; 48 h p.i., Vero cells",8.4 µM
same,"SI (selectivity index), BVDV SuwaNcp",BVDV SuwaNcp [17],>16.4
same,K22 concentration necessary to significantly reduce infectivity of BVDV SuwaNcp,BVDV SuwaNcp [17]; BT cells,≥ 40 µM
same,IC50,"BVDV SuwaNcp [17]; Bovine viral diarrhea virus isolates and strains, read-out: IC50 for infectivity, BVDV SuwaNcp",21.4 µM
"NC(=O)c1ncn([C@@H]2O[C@H](CO)[C@@H](O)[C@H]2O)n1 [RBV, ribavirin, reference compound]",effect of single treatment on ZIKV viral titers,"ZIKV [10]; 10 μg/ml RBV, 24 h p.i., Vero B4 cells",moderately reduced the viral titers
same,effect of single treatment on ZIKV viral titers,"ZIKV [10]; 100 μg/ml and 1,000 μg/ml RBV, 24 h p.i., Vero B4 cells",significantly reduced viral titers
IFN-α,IFN-α doses effective against ZIKV,"ZIKV [10]; single treatment, 24 h p.i., Vero B4 cells",≥ 10 IU
same,effect of IFN-α on cell viability,Vero B4 cells,no effect on cell viability
